Laboratory results taken from US20110263662A1, “1,2-DIAMIDO-ETHYLENE DERIVATIVES AS OREXIN ANTAGONISTS” (priority 2007, published 2011).

Assays:
[1] = target: T1, human orexin-1 receptor (Homo sapiens, UniProt O43613); assay: FLIPR intracellular calcium assay, orexin receptor antagonistic activity (OX1); type: cell-based; conditions: CHO cells expressing human orexin-1 receptor; 3 nM orexin-A; measured with FLIPR Tetra (marked *)
T1 construct: expressed in transfected cells; host or cells: CHO (Chinese hamster ovary) cells, grown under G418 selection
T1 sequence (O43613 1-425): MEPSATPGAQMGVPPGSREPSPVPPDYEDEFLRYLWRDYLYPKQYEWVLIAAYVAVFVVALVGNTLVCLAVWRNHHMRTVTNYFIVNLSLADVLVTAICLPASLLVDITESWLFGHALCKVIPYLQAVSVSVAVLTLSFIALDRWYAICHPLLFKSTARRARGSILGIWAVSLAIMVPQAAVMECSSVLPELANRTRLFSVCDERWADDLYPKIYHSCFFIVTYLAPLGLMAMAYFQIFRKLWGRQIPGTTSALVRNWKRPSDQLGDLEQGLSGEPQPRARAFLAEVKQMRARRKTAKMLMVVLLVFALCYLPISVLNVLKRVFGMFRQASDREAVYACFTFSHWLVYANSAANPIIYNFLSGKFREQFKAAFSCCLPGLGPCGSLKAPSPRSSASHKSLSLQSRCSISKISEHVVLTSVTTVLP
Method: (§1) Chinese hamster ovary (CHO) cells expressing the human orexin-1 receptor and the human orexin-2 receptor, respectively, are grown in culture medium (Ham F-12 with L-Glutamine) containing 300 μg/ml G418, 100 U/ml penicillin, 100 μg/ml streptomycin and 10% heat inactivated fetal calf serum (FCS). The cells are seeded at 20′000 cells/well into 384-well black clear bottom sterile plates (Greiner). The seeded plates are incubated overnight at 37° C. in 5% CO2.
(§2) Human orexin-A as an agonist is prepared as 1 mM stock solution in MeOH:water (1:1), diluted in HBSS containing 0.1% bovine serum albumin (BSA), NaHCO3:0.375 g/l and 20 mM HEPES for use in the assay at a final concentration of 3 nM.
(§3) Antagonists are prepared as 10 mM stock solution in DMSO, then diluted in 384-well plates, first in DMSO, then in HBSS containing 0.1% bovine serum albumin (BSA), NaHCO3: 0.375 g/l and 20 mM HEPES.
(§4) On the day of the assay, 50 μl of staining buffer (HBSS containing 1% FCS, 20 mM HEPES, NaHCO3: 0.375 g/l, 5 mM probenecid (Sigma) and 3 μM of the fluorescent calcium indicator fluo-4 AM (1 mM stock solution in DMSO, containing 10% pluronic) is added to each well.
(§5) The 384-well cell-plates are incubated for 50 min at 37° C. in 5% CO2 followed by equilibration at RT for 30-120 min before measurement.
(§6) Within the Fluorescent Imaging Plate Reader (FLIPR2 or FLIPR Tetra, Molecular Devices), antagonists are added to the plate in a volume of 10 μl/well, incubated for 10 min and finally 10 μl/well of agonist is added. Fluorescence is measured for each well at 1 second intervals, and the height of each fluorescence peak is compared to the height of the fluorescence peak induced by 3 nM orexin-A with vehicle in place of antagonist. For each antagonist, the IC50 value (the concentration of compound needed to inhibit 50% of the agonistic response) is determined. Optimized conditions may be achieved by adjustment of pipetting speed and cell splitting regime. The calculated IC50 values of the compounds may fluctuate depending on the daily cellular assay performance. Fluctuations of this kind are known to those skilled in the art.

[2] = target: T2, human orexin-2 receptor (Homo sapiens, UniProt O43614); assay: FLIPR intracellular calcium assay, orexin receptor antagonistic activity (OX2); type: cell-based; conditions: CHO cells expressing human orexin-2 receptor; 3 nM orexin-A; measured with FLIPR Tetra (marked *)
T2 construct: expressed in transfected cells; host or cells: CHO (Chinese hamster ovary) cells, grown under G418 selection
T2 sequence (O43614 1-444): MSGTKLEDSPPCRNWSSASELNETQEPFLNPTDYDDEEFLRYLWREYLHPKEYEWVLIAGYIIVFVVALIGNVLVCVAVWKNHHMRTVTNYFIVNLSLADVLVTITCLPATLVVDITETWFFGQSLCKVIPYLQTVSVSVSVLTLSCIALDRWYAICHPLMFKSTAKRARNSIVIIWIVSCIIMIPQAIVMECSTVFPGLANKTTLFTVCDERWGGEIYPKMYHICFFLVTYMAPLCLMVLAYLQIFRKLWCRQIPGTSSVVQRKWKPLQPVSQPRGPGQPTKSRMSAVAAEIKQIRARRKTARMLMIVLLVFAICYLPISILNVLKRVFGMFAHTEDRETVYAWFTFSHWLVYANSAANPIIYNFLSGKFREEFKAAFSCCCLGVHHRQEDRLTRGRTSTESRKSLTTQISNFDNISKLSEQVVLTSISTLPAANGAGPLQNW
Method: as §1, §2, §3, §4, §5, §6

Row | Structure (SMILES) | IC50 [1] [nM] | IC50 [2] [nM]
1 | COc1cccc(-c2sc(C)nc2C(=O)N(CCNC(=O)c2cccc3c2OCCO3)CC2CC2)c1 [Example 248, 5-(3-Methoxy-phenyl)-2-methyl-thiazole-4-carboxylic acid cyclopropylmethyl-{2-[(2,3-dihydro-benzo[1,4]dioxine-5-carbonyl)-amino]-ethyl}-amide] | 434 | 29
2 | Cc1cccc(-c2ccccc2C(=O)N(CCNC(=O)c2cccc3c2OCCO3)CC2CC2)c1 [Example 252, 2,3-Dihydro-benzo[1,4]dioxine-5-carboxylic acid {2-[cyclopropylmethyl-(3′-methyl-biphenyl-2-carbonyl)-amino]-ethyl}-amide] | 807 | 203
3 | Nc1nc(C(=O)N(CCNC(=O)c2cccc3occc23)CC2CC2)c(-c2ccc(F)cc2)s1 [Example 261, 2-Amino-5-(4-fluoro-phenyl)-thiazole-4-carboxylic acid {2-[(benzofuran-4-carbonyl)-amino]-ethyl}-cyclopropylmethyl-amide] | 263 | 4.2
4 | Nc1nc(C(=O)N(CCNC(=O)c2cccc3occc23)CC2CC2)c(-c2cccc(Cl)c2)s1 [Example 262, 2-Amino-5-(3-chloro-phenyl)-thiazole-4-carboxylic acid {2-[(benzofuran-4-carbonyl)-amino]-ethyl}-cyclopropylmethyl-amide] | 144 | 17

Now those with a lower IC50 [1], led by results:

Row | IC50 [1] [nM] | IC50 [2] [nM] | Structure (SMILES)
5 | 57 | 12 | Cc1cccc(-c2sc(N)nc2C(=O)N(CCNC(=O)c2nn(C)c3ccccc23)CC2CC2)c1 [Example 195, 1-Methyl-1H-indazole-3-carboxylic acid {2-[(2-amino-5-m-tolyl-thiazole-4-carbonyl)-cyclopropylmethyl-amino]-ethyl}-amide]
6 | 17 | 28 | Cc1nc(C(=O)N(CCNC(=O)c2c(C)nc3sccn23)CC2CC2)c(-c2cccc(C#N)c2)s1 [Example 187, 6-Methyl-imidazo[2,1-b]thiazole-5-carboxylic acid (2-{[5-(3-cyano-phenyl)-2-methyl-thiazole-4-carbonyl]-cyclopropylmethyl-amino}-ethyl)-amide]
